# Measured values taken from US20220098146A1, “REVERSIBLE IMINE UV-ABSORBERS” (The United States of America, as represented by the …, priority 2020, published 2022).
# Assays:
# [1] = test system: Rat; details: cited from earlier work
# [2] = test system: Silver ide; details: cited from earlier work
# [3] = test system: Fathead minnow; details: cited from earlier work
# [4] = in vitro SPF and critical wavelength by UV spectroscopy and Mansur equation; type: physicochemical
# Procedure: General procedure for determining in vitro SPF and critical wavelength: This method was adapted from Dutra, et al. (Dutra, E. A., et al., Brazilian Journal of Pharmaceutical Sciences, 3: 381-385 (2004)). First, 1.0 gram of sunscreen was placed in 100 mL flask and filled to volume with ethanol. The solution was mixed and filtered through cotton. 1.0 mL of the filtered solution was added to a 50 mL volumetric flask and the flask was filled to volume with ethanol. This final solution (˜0.02% of initial sunscreen) was placed in a 1 cm polystyrene cuvette and UV/Vis spectrum was recorded from 290 to 400 nm, every 5 nm, using a UV/Vis spectrophotometer (Molecular Devices Spectramax M2 UV-Vis Spectrophotometer) with ethanol as a reference . Next, the Mansur equation was applied (Mansur, J. S., et al., An Bras Dermatol., 61: 121-124 (1986)):
# where EE (λ)=erythemal effect spectrum; I(λ)=solar intensity spectrum; abs (λ)=absorbance of sunscreen product; CF—correction factor (=10). The values of EE×I are constants determined by Sayre et al. (Photochemistry and Photobiology, 29(3): 559-566 (1979)) so that a standard sunscreen formulation containing 8% homosalate presents an SPF value of 4. The critical wavelength was determined as the wavelength at which 90% of the total absorbance from 290-400 nm occurred. […]
# [5] = test system: skin of the intrascapular regions of the back; test: Human repeat insult patch testing (RIPT) for skin irritation and skin sensitization; type: in vivo
# Procedure: S2: Repeat Insult Patch Testing (RIPT) Procedure and Results: Human repeat insult patch testing for skin irritation and skin sensitization evaluations, including standard patient consent procedures and oversight, which were obtained after the nature and possible consequences of the study were explained, were conducted by BioScreen Testing Services, Inc. (Torrance, Calif.). Fifty-two volunteers were recruited, provided informed consent prior to initiating, and completed the study (ages 20-59, 10 male, 42 female, all with Fitzpatrick Skin Type 3—burn moderately, tan progressively). Approximately 0.02-0.05 mL of commercial formula (Daily Shower spray cleaner containing 0.2 or 1.0% cuminaldehyde aminoguanidine (CuminAG), pH 5.5-5.9; diluted 3% in DI water) was dispensed on a 7.5 mm paper disk or Rayon/polypropylene patch, which were then affixed to the skin of the intrascapular regions of the back. Subjects were instructed not to wet or expose the test area to sunlight. Patches were kept in place for 48 h after the first application, and 24 h after subsequent applications. This procedure was repeated until nine consecutive 24 h exposures had been made three times a week for three consecutive weeks. Test sites were evaluated by a trained laboratory personnel before each reapplication. After a 10-14 day rest period, a challenge dose was applied once to a previously unexposed test site, which was evaluated by a trained personnel after 48 and 96 h. The International Contact Dermatitis Research Group scoring scale was used: 0=no reaction, 1=erythema throughout at least ¾ of patch area, 2=erythema and induration throughout at least ¾ of patch area, 3=erythema, induration and vesicles, 4=erythema, induration and bullae.
# [6] = Calculation of skin permeation coefficient using Modified Potts and Guy Model; details: ratio of calculated skin permeation coefficient to that of octinoxate
# Source text: S1: Calculation of Skin Permeation using Modified Potts and Guy Model: The Modified Potts and Guy Model is a validated method for calculating the skin permeation coefficient (Kp) of a compound in cm/hr (Wilschut et al. 1995; Guy and Potts 1993). It relies on two inputs—the octanol-water partition coefficient, (Kow, indicative of hydrophobicity), and the molecular weight of the compound as follows:
# Using the Modified Potts and Guy Model, we calculated the skin permeation coefficient (Kp) of aminoguanidine and aldehyde subcomponents. This scenario represents the skin permeation of our compounds after dissociation. In order to probe skin permeation of the assembled guanyl hydrazones, which don't have published Kow's, we calculated Kp's of structurally similar molecules, robenidine and guanabenz. This scenario represents the application of our UV-absorbers directly to the skin via topical products. Lastly, we calculated the Kp of octinoxate for comparison. Based on these theoretical values, our compounds should have a much lower skin permeation potential than octinoxate and other commercial UV-absorbers.
# [7] = film leaching in DI or sea water with anion pairing; type: physicochemical
# Procedure: General protocol to assess film leaching: To a polyethylene square (1 cm by 1 cm, cut from a Ziploc® bag) 10 μL of a concentrated solution (˜5 wt % in EtOH) of imine was applied and allowed to dry at room temperature (10-20 min) before a concentrated solution of the anion (e.g., sodium lauryl sulfate, sodium cocoyl glutamate, sodium carbonate) to be tested (˜5 wt %) was co-applied and again allowed to dry on the film surface. The film sample was placed inside a 1.5 mL plastic tube containing 1 mL of DI or sea water (sourced from San Francisco Bay, Albany, Calif.) and after a set time (10 min), analyzed for the presence of soluble imine, which was quantified as a percentage of total sample that was originally present on the film (FIG. 6).
# As an additional feature, reversible UV-absorbers (e.g., aminoguanidine-aldehyde condensation products) can be paired with anions (e.g., that associate with the cation at typical use levels, e.g., 0.1-10 wt %) to manipulate solubility characteristics. This can greatly reduce water solubility to produce a waterproof sunscreen without relying on increased hydrophobicity of the active agent which is related to increased skin penetration (Wilschut, A., et al., Chemosphere, 30: 1275-1296 (1995); Guy, R. H., and R. O. Potts. American Journal of Industrial Medicine, 23(5): 711-719 (1993))).
# [8] = UV absorbance spectroscopy versus subcomponents; type: physicochemical; details: versus diaminoguanidine and cinnamaldehyde; UVB and UVA regions
# Source text: We determined the UV absorbing capacity of guanyl hydrazones in comparison to their aminoguanidine and aldehyde subcomponents. We prepared cinnamaldehyde diaminoguanidine (CinDAG) by reacting its subcomponents, diaminoguanidine and cinnamaldehyde, in a molar ratio of 1:2.
compound,measurement,setting,value
COc1ccc(C=O)cc1 [Anisaldehyde],"LD50 (mg/kg) Rat, oral",[1],1510 mg/kg
same,LC50 (mg/L) Fish,[2],215 mg/L
O=Cc1ccccc1 [Benzaldehyde],"LD50 (mg/kg) Rat, oral",[1],1300 mg/kg
same,LC50 (mg/L) Fish,[3],12.4 mg/L
"NC(N)=NN=CC=Cc1ccccc1 [CinAG, cinnamaldehyde aminoguanidine]",in vitro SPF improvement over octinoxate,[4]; concentration of 1% in formula,155%
O=CC=Cc1ccccc1 [Cinnamaldehyde],"LD50 (mg/kg) Rat, oral",[1],3350 mg/kg
same,LC50 (mg/L) Fish,[3],105.8 mg/L
"CC(C)c1ccc(C=NN=C(N)N)cc1 [CuminAG, cuminaldehyde aminoguanidine]",adverse reactions in RIPT,"[5]; Daily Shower spray cleaner containing 0.2 or 1.0% CuminAG, pH 5.5-5.9, diluted 3% in DI water, 52 volunteers, induction and challenge",no adverse reactions of any kind
CC(C)c1ccc(C=O)cc1 [Cuminaldehyde],"LD50 (mg/kg) Rat, oral",[1],1390 mg/kg
same,LC50 (mg/L) Fish,[3],6.62 mg/L
N/N=C(\N)NN [Diaminoguanidine],Kp/Kp octinoxate,[6],0.0001
"CCCCC(CC)COC(=O)C=Cc1ccc(OC)cc1 (stereo not drawn) [Octinoxate, reference compound]",Kp/Kp octinoxate,[6],1.0000
CCCCCCCCCCCCOS(=O)(=O)[O-].[Na+] [sodium lauryl sulfate],subjects with Grade 1 reaction in RIPT,"[5]; positive control, 2.0% solution, ICDRG scale, 1=erythema throughout at least 3/4 of patch area",Four
same,subjects with Grade 2 reaction in RIPT,"[5]; positive control, 2.0% solution, ICDRG scale, 2=erythema and induration throughout at least 3/4 of patch area",two
cinnamaldehyde diaminoguanidine [CinDAG],critical wavelength,[4]; wavelength at which 90% of total absorbance from 290-400 nm occurred,high critical wavelength
same,water resistance of the blend,[7]; blend with sodium cocoyl glutamate,comparable to that of octinoxate
same,solubility (leaching off film) on anion pairing,"[7]; sodium cocoyl glutamate added, fresh and salt water, 10 min",decreased solubility in both fresh and salt water
same,UV-absorbing capacity compared to subcomponents,[8],significantly more UV-absorbing capacity than its subcomponents
